The values that follow come from article PMC6478823, “A suite of phenotypic assays to ensure pipeline diversity when prioritizing drug-like Cryptosporidium growth inhibitors” (Nature Communications, 2019).

Like-named read-outs stand apart in the source and are kept apart here.

What all share (format): cell-based, Cryptosporidium parvum
The test system of assay [1] is C. parvum DMC1 expression. Nature of the assay: Sexual differentiation assay (DMC1 expression). Particulars: compound at asexual EC90, 48-72 h; for Asexual to sexual differentiation: Mean % DMC1 inhibition (normalized to host nuclei), Average: average of replicates; for Asexual to sexual differentiation: Mean % DMC1 inhibition (normalized to host nuclei), Replicate 1a: single replicate 1; for Asexual to sexual differentiation: Mean % DMC1 inhibition (normalized to host nuclei), Replicate 2a: single replicate 2; for Asexual to sexual differentiation: Mean % DMC1 inhibition (normalized to host nuclei), Replicate 3a: single replicate 3. The procedure, abridged: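 Compounds applied at their previously determined asexual-assay EC90, and % inhibition of DMC1 expression reported. Readout: 4% paraformaldehyde fixation, immunostaining with mAb 1H10G7 plus fluorescein-lectin and Hoechst, tiled 20× imaging in 384-well format, ImageJ analysis counting lectin-positive then DMC1-positive parasites.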

Assay [2] has as its system C. parvum. Particulars: compound at EC90; for Invasion Assay: Mean % Inhibition (parasites), Average: average of replicates; for Invasion Assay: Mean % Inhibition (parasites), Replicate 1a: single biological replicate 1; for Invasion Assay: Mean % Inhibition (parasites), Replicate 2a: single biological replicate 2; for Sporozoite invasion: yes/no grouping by phenotypic assay result; for effect on host cell invasion / parasitophorous vacuole formation: result in words.

Assay [3] concerns C. parvum. In words: DNA replication assay (EdU incorporation). Particulars: compound at EC90; for DNA Synthesis Assay: Mean % Inhibition of EdU-labeling (normalized to parasite numbers), Average: average of replicates; for DNA Synthesis Assay: Mean % Inhibition of EdU-labeling (normalized to parasite numbers), Replicate 1: single replicate 1; for DNA Synthesis Assay: Mean % Inhibition of EdU-labeling (normalized to parasite numbers), Replicate 2: single replicate 2; for DNA Synthesis Assay: Mean % Inhibition of EdU-labeling (normalized to parasite numbers), Replicate 3: single replicate 3; for DNA synthesis: yes/no grouping by phenotypic assay result; for DNA Synthesis Assay: Mean % Inhibition of EdU-labeling (normalized to parasite numbers), Replicate 4: single replicate 4.

Take `c1ccc(CNc2nc(NC3CCCC3)nc3ccccc23)cc1` [B-5]: in assay [1], the “Asexual to sexual differentiation: Mean % DMC1 inhibition (normalized to host nuclei), Average” value was found to be 7.84%; the “Asexual to sexual differentiation: Mean % DMC1 inhibition (normalized to host nuclei), Replicate 1a” value stood at 11.99%; the “Asexual to sexual differentiation: Mean % DMC1 inhibition (normalized to host nuclei), Replicate 2a” value is listed as -2.17%; the “Asexual to sexual differentiation: Mean % DMC1 inhibition (normalized to host nuclei), Replicate 3a” value was 13.72%. In addition, in assay [2], the “Invasion Assay: Mean % Inhibition (parasites), Average” value turned out to be 82.99%; the “Invasion Assay: Mean % Inhibition (parasites), Replicate 1a” value was found to be 81%; the “Invasion Assay: Mean % Inhibition (parasites), Replicate 2a” value came out at 85%; the Sporozoite invasion result is given as “yes”. Moreover, in assay [3], the “DNA Synthesis Assay: Mean % Inhibition of EdU-labeling (normalized to parasite numbers), Average” value is -9.25%; the “DNA Synthesis Assay: Mean % Inhibition of EdU-labeling (normalized to parasite numbers), Replicate 1” value is reported as -17.04%; the “DNA Synthesis Assay: Mean % Inhibition of EdU-labeling (normalized to parasite numbers), Replicate 2” value amounted to 19.85%; the “DNA Synthesis Assay: Mean % Inhibition of EdU-labeling (normalized to parasite numbers), Replicate 3” value is -30.57%. In addition, in assay [3], the DNA synthesis result was “no”.
For `Oc1c(CN2CCN(c3ccccc3F)CC2)cc(Br)c2cccnc12` [A-6], in assay [1], the “Asexual to sexual differentiation: Mean % DMC1 inhibition (normalized to host nuclei), Average” value is 17.22%; the “Asexual to sexual differentiation: Mean % DMC1 inhibition (normalized to host nuclei), Replicate 1a” value is 31.05%; the “Asexual to sexual differentiation: Mean % DMC1 inhibition (normalized to host nuclei), Replicate 2a” value is 3.39%. For the same compound, in assay [2], the “Invasion Assay: Mean % Inhibition (parasites), Average” value was -20.21%; the “Invasion Assay: Mean % Inhibition (parasites), Replicate 1a” value is recorded as -18%; the “Invasion Assay: Mean % Inhibition (parasites), Replicate 2a” value is -23%; the Sporozoite invasion entry was “no”. Also, in assay [3], the “DNA Synthesis Assay: Mean % Inhibition of EdU-labeling (normalized to parasite numbers), Average” value was determined as 89.49%; the “DNA Synthesis Assay: Mean % Inhibition of EdU-labeling (normalized to parasite numbers), Replicate 1” value turned out to be 98.00%; the “DNA Synthesis Assay: Mean % Inhibition of EdU-labeling (normalized to parasite numbers), Replicate 2” value amounted to 97.32%; the “DNA Synthesis Assay: Mean % Inhibition of EdU-labeling (normalized to parasite numbers), Replicate 3” value stood at 80.45%. In assay [3], the “DNA Synthesis Assay: Mean % Inhibition of EdU-labeling (normalized to parasite numbers), Replicate 4” value is reported as 78.02% and the DNA synthesis result is “yes”. Also, the “DNA Synthesis Assay: Mean % Inhibition of EdU-labeling (normalized to parasite numbers), Replicate 5” value in assay [3] (single replicate 5) was determined as 93.68%.
`CN(C)C[C@H](O)Cn1c2ccc(Br)cc2c2cc(Br)ccc21` (racemic) [Wiskostatin]: in assay [1], the “Asexual to sexual differentiation: Mean % DMC1 inhibition (normalized to host nuclei), Average” value was determined as 45.76%; the “Asexual to sexual differentiation: Mean % DMC1 inhibition (normalized to host nuclei), Replicate 1a” value was 43.95%; the “Asexual to sexual differentiation: Mean % DMC1 inhibition (normalized to host nuclei), Replicate 2a” value came out at 47.58%. Besides, in assay [2], the “Invasion Assay: Mean % Inhibition (parasites), Average” value stood at 88.58%; the “effect on host cell invasion / parasitophorous vacuole formation” value is “inhibited parasitophorous vacuole formation”; the “Invasion Assay: Mean % Inhibition (parasites), Replicate 1a” value is recorded as 90%; the “Invasion Assay: Mean % Inhibition (parasites), Replicate 2a” value is on record as 92%. Also, the “effect on host cell invasion / parasitophorous vacuole formation” value in assay [2] (listed as wiskostatin) is “active”. The “Invasion Assay: Mean % Inhibition (parasites), Replicate 3a” value in assay [2] (single biological replicate 3) is recorded as 82%. Moreover, in assay [2] (single biological replicate 4), the “Invasion Assay: Mean % Inhibition (parasites), Replicate 4a” value stood at 90%. In addition, in assay [3], the “DNA Synthesis Assay: Mean % Inhibition of EdU-labeling (normalized to parasite numbers), Average” value was 36.39%; the “DNA Synthesis Assay: Mean % Inhibition of EdU-labeling (normalized to parasite numbers), Replicate 1” value was 67.16%; the “DNA Synthesis Assay: Mean % Inhibition of EdU-labeling (normalized to parasite numbers), Replicate 2” value was determined as 42.34%; the “DNA Synthesis Assay: Mean % Inhibition of EdU-labeling (normalized to parasite numbers), Replicate 3” value was 31.25%. Moreover, the “DNA Synthesis Assay: Mean % Inhibition of EdU-labeling (normalized to parasite numbers), Replicate 4” value in assay [3] amounted to 4.83%. Moreover, the “effect on C. parvum DNA replication / EdU incorporation” value in assay [3] (result in words) is given as “active”.
Turning to `CC(=O)Oc1ccccc1C(=O)Nc1ncc([N+](=O)[O-])s1` [Nitazoxanide], in assay [1], the “Asexual to sexual differentiation: Mean % DMC1 inhibition (normalized to host nuclei), Average” value is 81.79%; the “Asexual to sexual differentiation: Mean % DMC1 inhibition (normalized to host nuclei), Replicate 1a” value stood at 79.14%; the “Asexual to sexual differentiation: Mean % DMC1 inhibition (normalized to host nuclei), Replicate 2a” value is 81.57%; the “Asexual to sexual differentiation: Mean % DMC1 inhibition (normalized to host nuclei), Replicate 3a” value came to 59.72%. Besides, the “Asexual to sexual differentiation: Mean % DMC1 inhibition (normalized to host nuclei), Replicate 4a” value in assay [1] (single replicate 4) is 95.07%. For the same compound, in assay [1] (single replicate 5), the “Asexual to sexual differentiation: Mean % DMC1 inhibition (normalized to host nuclei), Replicate 5a” value is recorded as 93.41%. For the same compound, in assay [2], the “Invasion Assay: Mean % Inhibition (parasites), Average” value is reported as 13.83%; the “effect on host cell invasion / parasitophorous vacuole formation” value was “no significant effect on parasitophorous vacuole formation”; the “Invasion Assay: Mean % Inhibition (parasites), Replicate 1a” value is 11%; the “Invasion Assay: Mean % Inhibition (parasites), Replicate 2a” value was determined as 17%. In assay [3], the “DNA Synthesis Assay: Mean % Inhibition of EdU-labeling (normalized to parasite numbers), Average” value is listed as -9.16%; the “DNA Synthesis Assay: Mean % Inhibition of EdU-labeling (normalized to parasite numbers), Replicate 1” value is listed as -33.81%; the “DNA Synthesis Assay: Mean % Inhibition of EdU-labeling (normalized to parasite numbers), Replicate 2” value is listed as 15.50%.
